The target of data set [1] is T1, Menin-MLL interaction (Homo sapiens, UniProt O00255).
T1 construct: GST-MENIN (1-615 aa) and FITC-MLL15-43 were diluted with an FP buffer
T1 sequence (O00255 1-615 isoform O00255-1): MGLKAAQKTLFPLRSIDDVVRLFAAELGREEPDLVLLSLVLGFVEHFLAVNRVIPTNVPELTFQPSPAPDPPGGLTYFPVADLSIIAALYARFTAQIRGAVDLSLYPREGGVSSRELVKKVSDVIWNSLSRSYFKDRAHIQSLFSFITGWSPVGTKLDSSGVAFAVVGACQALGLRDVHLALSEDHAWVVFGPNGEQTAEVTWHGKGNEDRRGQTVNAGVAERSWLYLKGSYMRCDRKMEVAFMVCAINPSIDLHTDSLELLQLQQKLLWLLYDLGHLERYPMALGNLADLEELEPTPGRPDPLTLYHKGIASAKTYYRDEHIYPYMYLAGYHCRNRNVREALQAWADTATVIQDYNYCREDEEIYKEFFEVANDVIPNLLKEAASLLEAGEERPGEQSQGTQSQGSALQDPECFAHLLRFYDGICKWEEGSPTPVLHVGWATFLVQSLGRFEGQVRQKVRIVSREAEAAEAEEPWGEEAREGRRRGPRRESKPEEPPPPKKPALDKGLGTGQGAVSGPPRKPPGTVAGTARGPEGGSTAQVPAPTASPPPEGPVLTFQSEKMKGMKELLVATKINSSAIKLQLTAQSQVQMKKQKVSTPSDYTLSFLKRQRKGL
Description: Fluorescence polarization assay of Menin-MLL interaction. Particulars: GST-MENIN (1-615 aa) 8 nM, FITC-MLL15-43 8 nM; read-out: IC50 (nM) for inhibitory activity against Menin-MLL protein binding. On the procedure:
The binding activity of the compounds for the menin protein was determined by a fluorescence polarization assay. GST-MENIN (1-615 aa) and FITC-MLL15-43 were diluted with an FP buffer (50 mM Tris-HCl pH 7.5, 50 mM NaCl, 1 mM DTT, 0.01% BSA), and the mixed solution of GST-MENIN (1-615 aa) at a final concentration of 8 nM and FITC-MLL15-43 at a final concentration of 8 nM was added to a black 384-well microtiter plate at 10 µL/well. The plate was centrifuged at 2500 rpm for 1 min and incubated at room temperature in the dark for 1 h. 5 µL of diluted compound (7 concentration points, 4-fold serial dilution, with blank control and negative control wells set) was added, and the plate was centrifuged at 2500 rpm for 1 min and incubated at room temperature in the dark for 3 h. After incubation, FP (480/535) values were measured using a PerkinElmer Envision multi-functional microplate reader, and the ability of the compounds to inhibit the Menin-MLL interaction was determined by calculating the inhibition rate (%) for each compound concentration according to formula 1; formula 1: inhibition rate (%) = 1 - (Maximum mP Control - mP of administration group)/(Maximum mP Control - minimum mP Control) × 100%. Four-parameter analysis was performed in GraphPad Prism software to fit dose-response curves and calculate IC50 values. A represents that IC50 < 50 nM. Table 2. Inhibitory activity against Menin-MLL protein binding

For data set [2], the system named is MOLM-13 cells. Briefly: In vitro cell activity assay (CCK-8 proliferation), MOLM-13. Particulars: Homo sapiens, CCK-8, 72-120 h, read-out: IC50 (nM) for inhibitory activity against proliferation of MOLM-13 cells. Type of data set: cell-based. On the procedure: (§1) MOLM-13 cells or MV-4-11 cells (source: Nanjing Cobioer Biosciences Co., Ltd.) in a good growth state were taken and seeded into a 96-well plate (100 µL/well) at 2000-10000 cells/well. After the cells were cultured overnight in a cell incubator at 37 °C, the compounds were subjected to gradient dilution and added using a pipettor, with 2 parallel replicate wells in each group. Meanwhile, a control group was set. After the cells were cultured in a cell incubator at 37 °C for another 72-120 h, the detection reagent CCK-8 (manufacturer: Dojindo Laboratories, Japan; 10 µL/well) was added. After the cells were cultured at 37 °C for another 3-5 h, absorbance values were measured at […] using a PerkinElmer Envision multi-functional microplate reader. Four-parameter analysis was performed in GraphPad Prism software to fit dose-response curves and calculate IC50 values. A represents that IC50 < 50 nM. Table 1. Inhibitory activity against cell proliferation

In data set [3] the test system is MV-4-11 cells. Briefly: In vitro cell activity assay (CCK-8 proliferation), MV-4-11. Type of data set: cell-based. Conditions: Homo sapiens, MV4-11; CCK-8, 72-120 h; read-out: IC50 (nM) for inhibitory activity against proliferation of MV-4-11 cells. The procedure: as §1
Data set [4] is described as follows: In vitro liver microsomal stability, mouse. Conditions: mouse liver microsomes 0.5 mg/mL, compound 1 µM, 37 °C. (In general: Liver microsomes are vesicles of endoplasmic reticulum, rich in cytochrome P450 enzymes.)
Description: (§2) Liver microsome incubation samples were prepared by mixing a PBS buffer (pH 7.4), a liver microsome solution from various species (human, mouse, monkey, dog, and rat) (0.5 mg/mL), a test compound (final concentration: 1 µM), and an NADPH + MgCl2 solution, followed by incubation at 37 °C and 300 rpm. Samples were collected from the reaction solution at the time points of 15 min and 60 min. Zero-hour samples were prepared by mixing a PBS buffer (pH 7.4), a liver microsome solution (0.5 mg/mL), and a test compound. An acetonitrile solution containing an internal standard was added to the samples, and supernatants were prepared by protein precipitation, diluted, and then assayed by LC-MS/MS.
A short description of data set [5]: In vitro liver microsomal stability, human. Conditions: human liver microsomes 0.5 mg/mL, compound 1 µM, 37 °C.
Description: as §2

With `C=C1C[C@@H]2CC[C@H]1[C@@H](C(=O)N1CCC3(CC1)CN(c1ncncc1Oc1ccc(F)cc1C(=O)N(CC)C(C)C)C3)N2` [Compound 2], the IC50 in data set [1], in data set [2] and in data set [3] was less than 50 nM each time.

Regarding `C=C1C[C@@H]2CC[C@H]1[C@@H](C(=O)N1CCC3(CC1)CN(c1ncncc1Oc1ccc(F)cc1-c1cccnc1C1CC1)C3)N2` [Compound 3], the IC50 in data set [1], in data set [2] and in data set [3] was less than 50 nM throughout.

Take `C=C1C[C@@H]2CC[C@H]1[C@@H](C(=O)N1CCC3(CC1)CN(c1ncncc1Oc1ccc(F)cc1-c1ccnn1C(C)C)C3)N2` [Compound 4]: the IC50 in data set [1], in data set [2] and in data set [3] was less than 50 nM in each case.

Turning to `C=C1CC2CCC1C(C(=O)N1CCC3(CC1)CN(c1ncncc1Oc1ccc(F)cc1C(=O)N(C)C(C)C)C3)N2` (stereo not shown) [Compound 6], the IC50 in data set [3] is less than 50 nM.

Consider `C=C1C[C@@H]2CC[C@H]1[C@@H](C(=O)N1CCC3(CC1)CN(c1ncnnc1Oc1ccc(F)cc1C(=O)N(CC)C(C)C)C3)N2` [Compound 27], for which the IC50 in data set [1], in data set [2] and in data set [3] was less than 50 nM in each case. The figures for the “Residuals at 60 min (%)” value in data set [4] and in data set [5] were greater than 60% and greater than 40%, respectively.

Regarding `C=C1C[C@@H]2CC[C@H]1[C@@H](C(=O)N1CCC3(CC1)CN(c1ncnnc1Oc1ccc(F)cc1-c1cccnc1C1CC1)C3)N2` [Compound 31], the IC50 in data set [1], in data set [2] and in data set [3] was less than 50 nM throughout.

Regarding `C=C1C[C@@H]2CC[C@H]1[C@@H](C(=O)N1CCC3(CC1)CN(c1ncnnc1Oc1ccc(F)cc1-c1ccnn1C(C)C)C3)N2` [Compound 32], the IC50 in data set [1] and in data set [3] was less than 50 nM throughout.

As for `C=C1C[C@@H]2CC[C@H]1[C@@H](C(=O)N1CCC3(CC1)CN(c1ncnnc1Oc1ccc(F)cc1-c1cncnc1C1CC1)C3)N2` [Compound 33], the IC50 in data set [1] and in data set [3] was less than 50 nM throughout. In data set [4], the “Residuals at 60 min (%)” value is on record as greater than 60%.

For the compound `C=C1CC2CCC1C(C(=O)N1CCC3(CC1)CN(c1ncnnc1Oc1ccc(F)cc1-c1cccnc1OC)C3)N2` (stereo not shown) [Compound 34], in data set [3], the IC50 is less than 50 nM.

On to `C=C1C[C@@H]2CC[C@H]1[C@@H](C(=O)N1CCC3(CC1)CN(c1ccnnc1Oc1ccc(F)cc1-c1cccnc1C1CC1)C3)N2` [Compound 35], for which the IC50 in data set [1], in data set [2] and in data set [3] was less than 50 nM in each case.

Consider `C=C1C[C@@H]2CC[C@H]1[C@@H](C(=O)N1CCC3(CC1)CN(c1ccnnc1Oc1ccc(F)cc1C(=O)N(CC)C(C)C)C3)N2` [Compound 36], for which the IC50 in data set [1], in data set [2] and in data set [3] was less than 50 nM in each case.

`C=C1C[C@@H]2CC[C@H]1[C@@H](C(=O)N1CCC3(CC1)CN(c1ncnnc1Oc1ccc(F)cc1C(=O)N1C(C)CCCC1C)C3)N2` (stereo partly shown) [Compound 46]: the IC50 in data set [1] and in data set [3] was less than 50 nM in each case.

For the compound `C=C1C[C@@H]2CC[C@H]1[C@@H](C(=O)N1CCC3(CC1)CN(c1ncnnc1Oc1ccc(F)cc1-c1cnccc1OC)C3)N2` [Compound 48], in data set [1], the IC50 is less than 50 nM. The entries for the “Residuals at 60 min (%)” value in data set [4] and in data set [5] were greater than 60% and greater than 40%, respectively.

Turning to `C=C1C[C@@H]2CC[C@H]1[C@@H](C(=O)N1CCC3(CC1)CN(c1ncnnc1Oc1ccc(F)cc1C(=O)N(C(C)C)C(C)C)C3)N2` [Compound 50], the IC50 in data set [1], in data set [2] and in data set [3] was less than 50 nM in each case.

On to `C=C1C[C@@H]2CC[C@H]1[C@@H](C(=O)N1CCC3(CC1)CN(c1ncnnc1Oc1ccc(F)cc1-c1cc(C(F)(F)F)cnc1C1CC1)C3)N2` [Compound 54], for which the IC50 in data set [1], in data set [2] and in data set [3] was less than 50 nM throughout.

As for `C=C1C[C@@H]2CC[C@H]1[C@@H](C(=O)N1CC3(C1)CN(c1ncnnc1Oc1ccc(F)cc1C(=O)N(CC)C(C)C)C3)N2` [Compound 56], the IC50 in data set [1], in data set [2] and in data set [3] was less than 50 nM throughout. For the same compound, the “Residuals at 60 min (%)” value in data set [5] was greater than 40%.

Take `C=C1CC2CCC1C(C(=O)N1CCC3(CC1)CN(c1ncnnc1Oc1c(F)cc(F)cc1-c1cccnc1C1CC1)C3)N2` (stereo not shown) [Compound 58]: in data set [3], the IC50 is less than 50 nM.

Consider `C=C1C[C@@H]2CC[C@H]1[C@@H](C(=O)N1CCC3(CC1)CN(c1ncnnc1Oc1ccc(F)cc1-c1ccc(O)nc1C1CC1)C3)N2` [Compound 64], for which the IC50 in data set [1] and in data set [3] was less than 50 nM each time. The entries for the “Residuals at 60 min (%)” value in data set [4] and in data set [5] were greater than 60% and greater than 40%, respectively.

For `C=C1CC2CCC1C(C(=O)N1CCC3(CC1)CN(c1ncnnc1Oc1ccc(F)cc1-c1nccn1C(C)C)C3)N2` (stereo not shown) [Compound 65], the IC50 in data set [3] is less than 50 nM.

On to `C=C1CC2CCC1C(C(=O)N1CCC3(CC1)CN(c1ncnnc1Oc1ccc(F)cc1-c1nccnc1C1CC1)C3)N2` (stereo not shown) [Compound 66], for which the IC50 in data set [3] was less than 50 nM.

As to `C=C1C[C@@H]2CC[C@H]1[C@@H](C(=O)N1CC3(C1)CN(c1ncnnc1Oc1ccc(F)cc1-c1cccnc1C1CC1)C3)N2` [Compound 67], the IC50 in data set [1], in data set [2] and in data set [3] was less than 50 nM in each case.

As for `C=C1CC2CCC1C(C(=O)N1CCC3(CC1)CN(c1ncnnc1Oc1ccc(F)cc1-c1ccnn1C1CC1)C3)N2` (stereo not shown) [Compound 70], in data set [3], the IC50 is less than 50 nM.

Regarding `C=C1C[C@@H]2CC[C@H]1[C@@H](C(=O)N1CC3(C1)CN(c1ncnnc1Oc1ccc(F)cc1-c1ccnn1C(C)C)C3)N2` [Compound 71], the IC50 in data set [1], in data set [2] and in data set [3] was less than 50 nM in each case.

For `C=C1C[C@@H]2CC[C@H]1[C@@H](C(=O)N1CC3(C1)CN(c1ncnnc1Oc1ccc(F)cc1-c1cncnc1C1CC1)C3)N2` [Compound 73], the IC50 in data set [1], in data set [2] and in data set [3] was less than 50 nM each time. In addition, in data set [4], the “Residuals at 60 min (%)” value is greater than 60%.

Consider `C=C1C[C@@H]2CC[C@H]1[C@@H](C(=O)N1CCC3(CC1)CN(c1ncnnc1Oc1ccc(F)cc1-c1ccnnc1C1CC1)C3)N2` [Compound 74], for which the IC50 in data set [1], in data set [2] and in data set [3] was less than 50 nM each time.

As for `C=C1CC2CCC1C(C(=O)N1CCCC3(CC1)CN(c1ncncc1Oc1ccc(F)cc1-c1cccnc1C1CC1)C3)N2` (stereo not shown) [Compound 76], the IC50 in data set [2] and in data set [3] was less than 50 nM throughout.

Take `C=C1CC2CCC1C(C(=O)N1CCCC3(CC1)CN(c1ncncc1Oc1ccc(F)cc1-c1cncnc1C1CC1)C3)N2` (stereo not shown) [Compound 77]: the IC50 in data set [2] and in data set [3] was less than 50 nM in each case.

The values above are taken from patent EP4806897A1, “AZA-BRIDGED RING DERIVATIVE” (Chia Tai Tianqing Pharmaceutical Group Co., Ltd., priority 2023, dated 2025).
